Like-named read-outs stand apart in the source and are kept apart here.
Assays:
5-HT1A = 5-HT1A (Rattus norvegicus (Rat), UniProt P19327); assay: 5-HT1A receptor binding assay (3H-8-OH-DPAT); conditions: for Ki: rat cortex membrane, 3H-8-OH-DPAT
Protocol: Rats were decapitated. […] Incubation at 37° C. was conducted for 10 min. […] Centrifugation was conducted and repeated 3 times.
(§1) Materials for the Receptor Binding Assay

5-HT7 receptor = 5-HT7 receptor (Rattus norvegicus (Rat), UniProt P32305); assay: 5-HT7 receptor binding assay ([3H]-5-CT); conditions: for Ki: rat hypothalamus membrane, [3H]-5-CT
Protocol: Adult SD rats were decapitated. […] Centrifugation was conducted (repeated 3 times).
as §1

Histamine H1 receptor = Histamine H1 receptor (Cavia porcellus (Guinea pig), UniProt P31389); assay: Histamine H1 receptor binding assay (3H-pyrilamine); conditions: for Ki: guinea pig cerebellum membrane, 3H-pyrilamine
Protocol: Preparation of Histamine H1 Receptor Membrane
Guinea pigs were decapitated. […] Vortex mixer was used for blending. Centrifugation was conducted at 48000 g, 4° C. for 10 min. The supernatant was discarded to give pellets, and buffer was added again for washing. Centrifugation was conducted and repeated 3 times.
as §1
(2) 100 μL of membrane preparation was added into each reaction tube.

[1] = tested on: MK-801 induced high activity in mice; assay: MK-801 induced high activity; format: in vivo; conditions: for ED50: Mus musculus, po; for improvement of MK-801 induced high activity (in words): compared with risperidone
Protocol: Ascorbic acid was provided by Sinopharm Chemical Reagent Co. Ltd.
Subsequently, the spontaneous activities of the mice of each group in 90 min were measured.

[2] = tested on: Apomorphine induced clambering in mice; assay: Apomorphine induced clambering assay of mice; format: in vivo; conditions: for ED50: Mus musculus, po, read-out: Apomorphine induced clambering (ED50, po, mg/kg); for improvement of apomorphine induced clambering symptoms (in words): compared with risperidone
Protocol: Healthy KM mice, male, with body weight of 18-22 g, were provided by Qinglongshan Animal Cultivation Center, Nanjing.
Apomorphine provided by Sigma Company was dissolved in 0.9% NaCl (containing 0.1% vitamin C) before use, and was freshly formulated before use.
Vitamin C, F20061113, was provided by Sinopharm Chemical Reagent Co. Ltd.
Instruments: self-made clambering cage, chronograph.
Procedures: apomorphine induced clambering assay of mice
After 5 min of adaptation, the behavior of the mice at 10-11, 20-21, and 30-31 min after the injection of apomorphine were observed and scored.

[3] = tested on: conditioned avoidance response in rats; assay: animal or person; format: in vivo, rat; conditions: for ED50: po; for Therapeutic index: LD50 versus CAR ED50; for performance in the rat CAR model (in words): compared with risperidone
Protocol: […] of SD rats, male.
Firstly, training the rats with shuttle box:
(1) The rats were allowed for adaption for five minutes;
(2) Conditioned stimulus (CS, light and noise) were started and lasted for 20 s, and at the tenth second, unconditioned stimulus (US, 1.5 mA electric shock) was performed and lasted for 10 s;
(3) Training was conducted 30 times per day for 9 days. The interval between two trainings was set randomly ranged from 20 to 30 s;
(4) Observation indicators:
The animal ran to another compartment during the conditioning stimulus was recorded as “avoidance”;
Animals ran to another compartment during the electric shock was recorded as “escape”;
Grouping of the qualified rats: the qualified rats were divided into negative control group, positive drug groups of each dosage, and compound groups of each dosage according to the principle of randomization, 8 in each group.
Administration Method: Corresponding solvent was administered intragastrically to the negative control group; corresponding dosages of positive drugs were administered intragastrically to the positive drug groups of each dosage; and corresponding dosages of compounds were administered intragastrically to the compound groups of each dosage.
CAR Assay: A CAR assay was performed 1 hour after intragastric administration. The method was the same as the CAR training. The observation indicators were the number of avoidances, the number of escapes, and the number of escape failures.
Statistical Data Processing: Assay data are presented as mean±standard deviation (Mean±SD), the comparison was performed by a combination of one-way ANOVA with post-hoc LSD. The ED50 was calculated using the probit method.

Catalepsy assay = conditions: both, Kunming, mouse, in vivo, po
Protocol: (§2) The durations of the mice to maintain the posture with the two forepaws on the bars were recorded, and 30 s of spasticity without moving was considered as the positive response. In the case the forepaws of the mice were not put down persistently, the observation was terminated at 60 s. The numbers of animals with positive response in each of the compound dosage groups were counted.

catalepsy in mice = assay: Catalepsy assay
Protocol: as §2

[4] = Acute toxicity study (mice); format: in vivo; conditions: both sexes, KM, mouse, in vivo, po, intragastric
Protocol: (§3) Example 41: Acute Toxicity Study
(§4) Limit test of sequential assay: KM rats or mice (half male and half female) were randomly divided into several groups (with 2-5 mice in each group), which were respectively the 2000 mg/kg groups for each compound, and the solvent group. 0.2 ml/10 g were administered intragastrically. The deaths of the animals in 3 days were observed. In the case 3 or more animals survived in 3 days without notable abnormity in their life states, the observation was continued until the assay was completed in 7 days. In the case 3 or more animals died in 3 days, the method of median lethal dose was used to determine the LD50.
(§5) Pre-assay for the method of the median lethal dose: KM mice (half male and half female) were randomly divided into several groups (with 4 mice in each group), which were respectively the 500 mg/kg, 200 mg/kg, 50 mg/kg groups for each compound, and the solvent group. 0.2 ml/10 g were administered intragastrically, and the deaths of the animals in 1-3 days were observed.
(§6) Results: The compound of the invention has relatively low acute toxicity.

[5] = Acute toxicity study (rats); conditions: both sexes, KM, in vivo, po, 2000 mg/kg; rat, intragastric
Protocol: as §3, §4, §6

D2 = D2 (Rattus norvegicus (Rat), UniProt P61169); assay: D2 receptor binding assay (3H-Spiperone); conditions: read-out: Ki (nM) D2; rat striatum membrane, 3H-Spiperone
Protocol: Rats were decapitated. Striatum of brain was rapidly taken on ice, 3 ml of buffer (0.05 M Tris-HCl buffer, containing NaCl 120 mM, KCl 5 mM, MgCl2 1 mM, CaCl2 1 mM) was added, homogenization was conducted, and then 5 ml of buffer was then added. The weight of the homogenized tubes were adjusted using a balance, and centrifugation was conducted. The supernatant was discarded, and 3 ml of buffer was added. Vortex mixer was used for blending, and then 5 ml of buffer was added. Centrifugation was conducted and repeated 3 times. The supernatant was discarded after centrifugation was completed, and the pellets were stored at −80° C. for future use.
Beckman LS-6500 Multi-function Liquid Scintillation Counter was used.
(1) The prepared membrane was applied with appropriate amount of buffer, and homogenizer was used for evenly dispersing. 15 tubes were mixed into a 100 ml container, and appropriate amount of buffer was added to give 50 ml of membrane suspension, which was reserved for future use.
(§7) (2) 100 μL of membrane preparation and 100 μL of buffer were added into each reaction tube.
(3) 100 μL of buffer was added into the total binding tube (TB), 100 μL of Butaclamol (final concentration 10^−5M) was added into the nonspecific binding tube (NB), 100 μL of the test compound (final concentration 10^−5M) was added into the specific binding tube (SB) of each test compound.
(5) Each of the reaction tubes was incubated at 37° C. for 20 min. After the reaction was completed, the bound ligands were rapidly filtered under reduced pressure, and sufficiently washed with ice-chilled assay buffer. The filter was taken out and put into a 3 ml scintillation vial, and 2 ml of toluene scintillation cocktail was added and blended.
(6) The scintillation vials were put into Liquid Scintillation Counter for counting. Inhibition rate(I%)=(Total binding tube cpm−compound cpm)/(Total binding tube cpm−nonspecific binding tube cpm)×100%
Each assay for the compounds was conducted in duplicate for two individual tests.

5-HT2A = 5-HT2A (Rattus norvegicus (Rat), UniProt P14842); assay: 5-HT2A receptor binding assay ([3H]-Ketanserin); conditions: for Ki: read-out: Ki (nM) 5-HT2A, rat cortex membrane, [3H]-Ketanserin
Protocol: Rats were decapitated. Cortex of brain was rapidly taken on ice, and 3 ml of buffer (0.05 M Tris-HCl buffer: 6.05 g of Tris was dissolved in 1000 ml of double-distilled water, and concentrated HCl was used to adjust to pH 7.5) was added, homogenization was conducted, and then 5 ml of buffer was added. Incubation was conducted at 37° C. for 10 min, the weight of the tubes were adjusted using a balance after incubation. Centrifugation was conducted at 12000 rpm, 4° C. for 20 min, the supernatant was discarded, and 3 ml of buffer was added. Vortex mixer was used for blending, and then 5 ml of buffer was added. Centrifugation was conducted (repeated 3 times). After the centrifugation, the supernatant was discarded, and the pellets were stored at −80° C. for future use.
(1) The prepared membrane was applied with buffer, and homogenizer was used for evenly dispersing. 15 tubes were mixed into a 100 ml container, and appropriate amount of buffer was added to give 50 ml of membrane suspension, which was reserved for future use.
as §7
(3) 100 μL of buffer was added into the total binding tube (TB), 100 μL of Methysergide (final concentration 10^−5M) was added into the nonspecific binding tube (NB), 100 μL of the test compound (final concentration 10^−5M) was added into the specific binding tube (SB) of each test compound.
(5) Each of the reaction tubes was incubated at 37° C. for 15 min. After the reaction was completed, the bound ligands were rapidly filtered under reduced pressure, and sufficiently washed with ice-chilled assay buffer. The filter was taken out and put into a 3 ml scintillation vial, and 2 ml of toluene scintillation cocktail was added and blended.
(6) The scintillation vial were put into Liquid Scintillation Counter for counting. Inhibition rate(I%)=(Total binding tube cpm−compound cpm)/(Total binding tube cpm−nonspecific binding tube cpm)×100%

mice = assay: Acute toxicity study (mice); format: in vivo; conditions: intragastric
Protocol: as §3, §4, §5, §6

[6] = rat, intragastric, 1 hour after administration, read-out: Rat CAR ED50
[7] = both, Kunming (KM), mouse, in vivo

5-HT2A, sequence (P14842 whole entry): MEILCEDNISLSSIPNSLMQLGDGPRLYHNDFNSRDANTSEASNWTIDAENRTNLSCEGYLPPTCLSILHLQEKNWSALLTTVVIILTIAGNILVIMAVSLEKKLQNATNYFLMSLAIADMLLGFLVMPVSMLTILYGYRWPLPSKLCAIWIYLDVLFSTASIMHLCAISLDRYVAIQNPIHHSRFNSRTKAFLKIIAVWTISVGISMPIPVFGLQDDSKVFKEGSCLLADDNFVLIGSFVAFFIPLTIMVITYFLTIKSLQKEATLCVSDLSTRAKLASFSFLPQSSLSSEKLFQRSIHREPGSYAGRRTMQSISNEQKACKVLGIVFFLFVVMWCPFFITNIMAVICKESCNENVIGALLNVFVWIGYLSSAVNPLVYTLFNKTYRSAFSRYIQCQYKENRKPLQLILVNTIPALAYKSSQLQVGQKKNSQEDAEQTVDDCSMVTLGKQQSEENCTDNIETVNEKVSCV
Histamine H1 receptor, sequence (P31389 whole entry): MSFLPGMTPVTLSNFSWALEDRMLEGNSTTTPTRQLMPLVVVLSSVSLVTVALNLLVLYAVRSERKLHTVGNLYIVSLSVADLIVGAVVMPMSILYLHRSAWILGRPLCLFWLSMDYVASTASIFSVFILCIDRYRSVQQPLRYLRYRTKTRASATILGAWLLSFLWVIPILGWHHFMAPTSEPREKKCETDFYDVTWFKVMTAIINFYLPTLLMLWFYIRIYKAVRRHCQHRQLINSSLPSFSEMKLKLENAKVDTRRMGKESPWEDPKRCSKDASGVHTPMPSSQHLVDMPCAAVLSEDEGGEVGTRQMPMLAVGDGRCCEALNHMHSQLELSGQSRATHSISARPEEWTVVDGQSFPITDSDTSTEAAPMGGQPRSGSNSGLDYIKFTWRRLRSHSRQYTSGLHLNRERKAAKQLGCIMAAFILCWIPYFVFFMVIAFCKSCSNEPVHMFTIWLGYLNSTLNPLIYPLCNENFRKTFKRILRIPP
5-HT7 receptor, sequence (P32305 whole entry): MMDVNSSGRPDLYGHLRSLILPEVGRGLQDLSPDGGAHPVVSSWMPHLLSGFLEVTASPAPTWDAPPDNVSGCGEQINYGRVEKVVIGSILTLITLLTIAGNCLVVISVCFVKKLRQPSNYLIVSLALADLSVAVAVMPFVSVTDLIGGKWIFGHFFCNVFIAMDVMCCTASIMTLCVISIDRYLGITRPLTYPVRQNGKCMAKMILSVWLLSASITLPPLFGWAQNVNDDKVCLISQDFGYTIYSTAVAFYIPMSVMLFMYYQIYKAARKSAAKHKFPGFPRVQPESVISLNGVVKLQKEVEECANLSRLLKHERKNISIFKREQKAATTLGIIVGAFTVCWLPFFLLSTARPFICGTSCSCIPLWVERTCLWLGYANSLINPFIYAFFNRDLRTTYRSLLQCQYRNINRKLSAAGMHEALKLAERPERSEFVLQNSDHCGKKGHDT
5-HT1A, sequence (P19327 whole entry): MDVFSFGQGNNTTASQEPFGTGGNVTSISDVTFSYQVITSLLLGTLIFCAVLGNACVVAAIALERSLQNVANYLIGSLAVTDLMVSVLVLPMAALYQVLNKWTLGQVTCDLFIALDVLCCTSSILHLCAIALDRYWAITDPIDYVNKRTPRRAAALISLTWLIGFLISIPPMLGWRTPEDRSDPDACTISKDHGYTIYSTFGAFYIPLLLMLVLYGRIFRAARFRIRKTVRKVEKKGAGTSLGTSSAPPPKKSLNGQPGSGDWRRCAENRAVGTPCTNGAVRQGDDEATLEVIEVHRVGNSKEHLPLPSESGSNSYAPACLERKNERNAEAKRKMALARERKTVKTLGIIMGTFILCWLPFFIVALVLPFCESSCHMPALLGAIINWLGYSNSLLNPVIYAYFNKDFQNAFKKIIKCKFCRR
D2, sequence (P61169 whole entry): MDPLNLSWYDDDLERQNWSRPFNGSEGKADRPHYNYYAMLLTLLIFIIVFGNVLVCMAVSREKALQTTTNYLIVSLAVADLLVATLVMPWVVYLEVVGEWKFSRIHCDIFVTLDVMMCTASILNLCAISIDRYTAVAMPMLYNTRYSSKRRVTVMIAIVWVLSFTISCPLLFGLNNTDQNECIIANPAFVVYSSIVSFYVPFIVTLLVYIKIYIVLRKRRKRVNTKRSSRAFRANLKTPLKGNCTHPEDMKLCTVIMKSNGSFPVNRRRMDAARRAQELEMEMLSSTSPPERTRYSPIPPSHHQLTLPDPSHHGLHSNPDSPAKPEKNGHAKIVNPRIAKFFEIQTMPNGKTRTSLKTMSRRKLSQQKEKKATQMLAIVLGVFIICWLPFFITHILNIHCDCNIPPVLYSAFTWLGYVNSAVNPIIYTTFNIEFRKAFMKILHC

Row | SMILES | Ki (5-HT1A) [nM] | Ki (5-HT7 receptor) [nM] | Ki (Histamine H1 receptor) [nM] | ED50 [1] [mg/kg] | ED50 ([2]; mice) [mg/kg] | improvement of apomorphine induced clambering symptoms (in words) ([2]; mice) | ED50 [3, 6] [mg/kg] | Therapeutic index ([3]; rat) | performance in the rat CAR model (in words) ([3]; rat) | ED50 (Catalepsy assay) [mg/kg] | Catalepsy/Apomorphine induced clambering (catalepsy in mice; mice, ratio of ED50 values) | Catalepsy/MK-801 induced high activity (catalepsy in mice; mice, ratio of ED50 values) | EPS in effective dosage (in words) (catalepsy in mice; mouse, in vivo) | LD50 [4] [mg/kg] | LD50 at 3 days [5] [mg/kg] | Ki (D2) [nM] | Ki (5-HT2A) [nM] | other results
1 | CN1CCc2ccc(OCCCN3CCN(c4nsc5ccccc45)CC3)cc2C1=O [Compound 14, 7-(3-(4-(benzo[d]isothiazol-3-yl)piperazin-1-yl)propoxy)-2-methyl-3,4-dihydroisoquinolin-1(2H)-one] | 8.8 | 16.8 | 1360 | 0.07 | 0.06 | effectively improve | 0.65 | 238 | markedly better than risperidone | 32 | 533 | 457 | do not cause EPS | 202 | 155 | 6.9 | 7.2 | improvement of MK-801 induced high activity (in words) [1]: significantly improve
2 | CN1CCc2ccc(OCCCN3CCN(c4ncccn4)CC3)cc2C1=O [Compound 24, 2-methyl-7-(3-(4-(pyrimidin-2-yl)piperazin-1-yl)propoxy)-3,4-dihydroisoquinolin-1(2H)-one] | 8.8 | 9.9 | > 2000 | 0.18 | 0.22 |  | 1.02 | 143 |  | 47 | 214 | 261 |  | 190 | 146 | 11.9 | 7.5 | 
3 | CN1CCc2ccc(OCCCN3CCC(c4noc5cc(F)ccc45)CC3)cc2C1=O [Compound 5, 7-(3-(4-(6-fluorobenzo[d]isoxazol-3-yl)piperidin-1-yl)propoxy)-2-methyl-3,4-dihydroisoquinolin-1(2H)-one] | 2.4 | 5.9 | > 2000 |  |  | effectively improve |  |  | markedly better than risperidone | 35 |  |  | do not cause EPS | 258 | 168 |  | 0.1 | affinity for 5-HT1A (in words) (5-HT1A): strong affinities; affinity for 5HT7 (in words) (5-HT7 receptor): high affinity; affinity for H1 (in words) (Histamine H1 receptor): low affinity; ED50 [2]: 0.05 mg/kg; ED50 ([3]; Rattus norvegicus, 1 h, read-out: Rat CAR ED50 (mg/kg)): 0.32 mg/kg; Catalepsy/Apomorphine induced clambering (catalepsy in mice; [7]): 700; Catalepsy/MK-801 induced high activity (catalepsy in mice; [7]): 875; LD50 (po, mg/kg) (mice): 257 mg/kg; affinity for 5-HT2A (in words) (5-HT2A): strong affinities
4 | O=C(CCCN1CCC(O)(c2ccc(Cl)cc2)CC1)c1ccc(F)cc1 [haloperidol, reference compound] |  |  |  | 0.1 | 0.08 |  |  |  |  | 0.44 | 4.89 | 4.40 |  |  |  |  |  | 
5 | Cc1nc2n(c(=O)c1CCN1CCC(c3noc4cc(F)ccc34)CC1)CCCC2 [risperidone, reference compound] |  |  |  |  |  |  |  |  |  |  |  |  |  |  | 113 |  |  | 
6 | CN1CCc2ccc(OCCCN3CCN(c4ccccc4F)CC3)cc2C1=O [Compound 20, 7-(3-(4-(2-fluorophenyl)piperazin-1-yl)propoxy)-2-methyl-3,4-dihydroisoquinolin-1(2H)-one] | 24.5 | 29.9 | > 2000 |  |  |  |  |  |  |  |  |  |  |  |  | 54.8 | 32.1 | 
7 | COc1ccccc1N1CCN(CCCOc2ccc3c(c2)C(=O)N(C)CC3)CC1 [Compound 22, 7-(3-(4-(2-methoxyphenyl)piperazin-1-yl)propoxy)-2-methyl-3,4-dihydroisoquinolin-1(2H)-one] | 6.5 | 28.1 | > 2000 | 0.12 | 0.19 | effectively improve | 0.49 | 404 | markedly better than risperidone | 52 | 273 | 433 | do not cause EPS | 311 | 198 | 9.6 | 3.2 | improvement of MK-801 induced high activity (in words) [1]: significantly improve
8 | CCN1CCc2ccc(OCCCN3CCC(c4noc5cc(F)ccc45)CC3)cc2C1=O [Compound 7, 7-(3-(4-(6-fluorobenzo[d]isoxazol-3-yl)piperidin-1-yl)propoxy)-2-ethyl-3,4-dihydroisoquinolin-1(2H)-one] | 1.9 | 12.7 | > 2000 |  |  |  |  |  |  |  |  |  |  |  |  | 13.1 | 0.9 | 
9 | CN1CCN(C2=Nc3cc(Cl)ccc3Nc3ccccc32)CC1 [clozapine, reference compound] |  |  |  | 2.28 | 17.9 |  |  |  |  | > 50 | >5.58 | >21.93 |  |  |  |  |  | 
